No end group written: not given here.
What was measured:
POU5F1 (Oct3/4) = POU5F1 (Oct3/4) expression after adding small molecules to the adult stem cell culture medium; format: cell-based
native human MSC = experiment: Puromycin dose-response / selection: killing of native, non-transfected human MSC; format: cell-based; settings: 10 μg/ml puromycin in medium
Method: Human mesenchymal stem cells (Vitro Diagnostics, Inc., catalog number SC00A1) were cultured at 7500/cm^2 in T25 flasks (Greiner Bio-One catalog number 690-190) following coating at 2 μg/cm^2 with poly-L-lysine (Sigma Catalog number P1399) using low serum complete MSC cell culture medium (Vitro Diagnostics, Inc., catalog number SC00B1). Cultures were maintained here and throughout this study in a 5% O2, 5% CO2, balance N2 gas environment in a humidified chamber maintained at 37° C. Following two days of continuous culture and at about 40% confluence, the cultures were exposed to 1/15 dilution of the POU5-F1 pseudovirus stock in low serum medium containing 5 μg/ml polybrene (Sigma catalog number H9268). Following 10 hours exposure to the pseudovirus particles, the cultures were washed twice with PBS and cultured in low serum medium (Vitro SC00B1). Selection of stable transfectants began 16 hours later using 3 to 10 μg/ml puromycin (Sigma catalog number P7255) which was a sufficient concentration to kill native, non-transfected human MSC. Single colony clones were established by limited dilution cloning in 96 well plates (Greiner Bio-One, catalog number 655-160) using low serum MSC medium (Vitro Diagnostics, Inc., catalog number SC00B1) containing 10 μg/ml puromycin. […]

[1] = added to the medium at 1 to 2 mM

Compound: CCCC(CCC)C(=O)O [valproic acid]
- POU5F1 (Oct3/4) expression (POU5F1 (Oct3/4); [1]): increased POU5F1 (Oct3/4) expression

Compound: COc1ccc(C[C@H](N)C(=O)N[C@H]2[C@@H](O)[C@H](n3cnc4c(N(C)C)ncnc43)O[C@@H]2CO)cc1 [puromycin]
- effect on wild type MSCs (native human MSC): lethal

Compound: C[C@]12CCC(=O)C=C1CC[C@@H]1[C@@H]2[C@@H](O)C[C@@]2(C)[C@H]1CC[C@]2(O)C(=O)CO [Hydrocortisone, hydrocortisone]
- POU5F1 (Oct3/4) expression (POU5F1 (Oct3/4); added to the medium, preferably at 80 to 110 nM): increased POU5F1 (Oct3/4) expression

Compound: CCCC(=O)[O-].[Na+] [sodium butyrate]
- POU5F1 (Oct3/4) expression (POU5F1 (Oct3/4); [1]): increased POU5F1 (Oct3/4) expression

Compound: Nc1ncn([C@@H]2O[C@H](CO)[C@@H](O)[C@H]2O)c(=O)n1 [5-azacytidine]
- POU5F1 (Oct3/4) expression (POU5F1 (Oct3/4); added to the medium at 0.5 mM, transient periods </=48 hours): increased POU5F1 (Oct3/4) expression

Compound: gonadotropin releasing hormone (QHWSYGLRPG; ends and bridges not checked; UniProt P01148 24-33, looked up) [GnRH]
- POU5F1 (Oct3/4) expression (POU5F1 (Oct3/4); added to the medium at 75 pg/ml): increased POU5F1 (Oct3/4) expression

Compound: O=C1O[C@H]([C@@H](O)CO)C(O)=C1O [Vitamin C, ascorbic acid]
- POU5F1 (Oct3/4) expression (POU5F1 (Oct3/4); added to the medium at 60 μM): increased POU5F1 (Oct3/4) expression
